Patent publication US8853424B2 (Japan Science and Technology Agency, priority 2008, dated 2014)
Like-named read-outs stand apart in the source and are kept apart here.

What was measured:
[1] = system: Truncated N-terminal huntington 150 Q-EGFP-Neuron 2a cells; assay: Measurement of x-Fold (polyglutamine aggregation inhibitory activity); format: cell-based
Method: In the present invention, the polyglutamine aggregation inhibitory activity (x-Fold) can be measured, for example, by the method described in the Example.
The number of the aggregated cells, and the total number of cells were counted by Array Scan V T1 (manufactured by Cellomics, Pittuburg, USA), and the ratio of the aggregated cells to the total number of cells was determined (x-Fold). […]

[2] = system: SOC (store operated calcium channel); assay: Measurement of SOC IC50 (thapsigargin store depletion, calcium re-addition, CHO cells); format: cell-based; conditions: read-out: SOC IC50
Method: The SOC (store operated calcium channel)-suppressive action can be measured by the method described in the Example and using, for example, FDSS 3000.
CHO cell culture medium was replaced with a BSS solution which is an extracellular fluidfree of calcium, the compound of the present invention was added 1 min later, and 1 μM thapsigargin was allowed to act thereon 2 min later to deplete intracellular calcium store. […]

transglutaminase (TGase) = assay: Measurement of TG (TGase inhibitory activity, monodansyl cadaverine / N,N-dimethylcasein fluorescence, FDSS 3000); format: biochemical
In short: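 Compound (1 μL of 10 mM stock) added to 0.1 mL reaction: 100 mM HEPES-NaOH pH 7.5, 1 mM CaCl2, 20 μM monodansyl cadaverine, 0.05 mg/mL N,N-dimethylcasein, 5 μg/mL TGase. Rate of fluorescence change at 340 nm measured; DMSO control set to 100; TG50 is the concentration halving activity.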

[3] = polyglutamine aggregation inhibitory activity, Table 1
[4] = ratio of aggregated cells to total number of cells, compound 20 μM, 20 hr, almost 1 without compound, smaller = stronger inhibition
[5] = CHO cells, 1 μM thapsigargin, 2 mM calcium chloride
[6] = TGase activity with compound (10 mM, 1 μL in 0.1 ml enzyme reaction solution), DMSO control taken as 100
[7] = TGase inhibitory activity value, Table 1
[8] = Cricetulus griseus, CHO, Table 1
[9] = Cricetulus griseus, CHO, CHO cells, 1 μM thapsigargin, 2 mM calcium chloride
[10] = Cricetulus griseus, CHO, CHO cells, thapsigargin store depletion

| Molecule | x-Fold [1, 3] | x-Fold [1, 4] | TGase activity remaining (% of DMSO control = 100) (transglutaminase (TGase); [6]) | TGase activity remaining (% of DMSO control = 100) (transglutaminase (TGase); [7]) | IC50 [2, 8] | IC50 [2, 9] | further results |
| --- | --- | --- | --- | --- | --- | --- | --- |
| 4,4′(phenyl-2-aminoethoxyboryl)diphenyl [Example 10] | 0.92 | 0.92 | 7 | 7 |  |  | IC50 [2, 5]: 0.5 µM |
| 4,4′-((2-aminoethoxy)(3-chloro-4-methylphenyl)boryl)diphenylether [Example 249] | 0.74 | 0.74 | 25 | 25 |  |  | IC50 [2, 5]: 0.3 µM |
| NC(=O)CC(N)C(=O)OB(c1ccccc1)c1ccc(Oc2ccc(B(O)c3ccccc3)cc2)cc1 (single isomer, unassigned) [Example 6, (4-(phenylasparagineboryl)phenyl)(4′-(phenylhydroxyboryl)phenyl)ether] |  | 1.01 | 23 |  | 0.2 µM |  | x-Fold ([1]; polyglutamine aggregation inhibitory activity, Table 1, listed as 7132): 1.01; TGase activity remaining (% of DMSO control = 100) (transglutaminase (TGase); TGase inhibitory activity value, Table 1, listed as 7132): 23 |
| OB(c1ccccc1)c1ccc(Oc2ccc(B(O)c3ccccc3)cc2)cc1 [Example 3, bis(4,4′-(phenylhydroxyboryl)phenyl)ether] | 0.49 | 0.49 | −20 | −20 |  |  | IC50 [2, 5]: 0.5 µM |
| OB(c1ccccc1)c1cccc(COCc2cccc(B(O)c3ccccc3)c2)c1 [Example 7, bis(3,3′-(phenylhydroxyboryl)benzyl)ether] |  | 1.03 | 14 |  |  |  | IC50 [2, 5]: 0.2 µM |
| NCCSB(c1ccccc1)c1ccc(-c2ccc(B(SCCN)c3ccccc3)cc2)cc1 [Example 9, 4,4′(phenyl-2-aminoethylthioboryl)diphenyl] | 0.87 | 0.87 | 12 | 12 |  |  | IC50 [2, 5]: 0.5 µM |
| Cc1ccc(B(SCCN)c2ccc(C)c(Cl)c2)cc1Cl [Example 32, di(3-chloro-4-methylphenyl)-2-aminoethylthioborane] | 1.02 | 1.02 | 12 | 12 | 1 µM | 1 µM |  |
| Cc1ccc(B(OC(=O)C(N)CN)c2ccc(C)c(Cl)c2)cc1Cl (stereo not shown) [Example 71, di(3-chloro-4-methylphenyl)(2,3-diaminopropionate-O,N)borane] | 0.97 | 0.97 | 51 | 51 | 1 µM | 1 µM |  |
| Cc1ccc(B(OCCN2CCNCC2)c2ccc(C)c(Cl)c2)cc1Cl [Example 72, di(3-chloro-4-methylphenyl)piperazinoethoxyborane] | 1.02 | 1.02 | 41 | 41 | 0.5 µM | 0.5 µM |  |
| Cc1ccc(B(OCCN2CCCCC2)c2ccc(C)c(Cl)c2)cc1Cl [Example 73, di(3-chloro-4-methylphenyl)piperidinoethoxyborane] | 0.85 | 0.85 | 35 | 35 | 1.2 µM | 1.2 µM |  |
| CC(C)(C)B(O)c1ccccc1 [Example 109, tertiary-butyl phenyl borinic acid] | 1.02 | 1.02 | 108 | 108 | > 10 µM | > 10 µM |  |
| Cc1ccc(B(OCc2ccccn2)c2ccc(C)c(Cl)c2)cc1Cl [Example 215] | 1.03 | 1.03 |  |  | 2 µM | 2 µM |  |
| CC1[NH2+][B-](c2ccccc2)(c2ccccc2)OC1=O (stereo not shown) [Example 258, diphenyl(alaninate-O,N)borane] |  |  | 110 | 110 | 5 µM | 5 µM |  |
| OB(c1ccccc1)c1ccc(COCc2cccc(B(O)c3ccccc3)c2)cc1 [Example 329, (3-(phenylhydroxyboryl)benzyl)(4-(phenylhydroxyboryl)benzyl)ether] |  |  | 81 | 81 | 0.2 µM | 0.2 µM |  |
| OB(c1ccccc1)c1ccc(COc2ccc(B(O)c3ccccc3)cc2)cc1 [Example 370, (4-phenylhydroxyborylphenyl)(4′-phenylhydroxyborylbenzyl)ether] | 0.76 | 0.76 |  |  | 2 µM | 2 µM |  |
| OB(c1ccc(COc2ccc(B(O)c3ccc(C(F)(F)F)cc3)cc2)cc1)c1ccc(C(F)(F)F)cc1 [Example 372, (4-trifluoromethylphenylhydroxyborylphenyl)(4′-trifluoromethylphenylhydroxyborylbenzyl)ether] | 0.86 | 0.86 |  |  | 1 µM | 1 µM |  |
| NCCOB(c1ccc(COc2ccc(B(OCCN)c3ccc(C(F)(F)F)cc3)cc2)cc1)c1ccc(C(F)(F)F)cc1 [Example 373, (4-trifluoromethylphenylaminoethoxyborylphenyl)(4′-trifluoromethylphenylaminoethoxyborylbenzyl)ether] | 0.84 | 0.84 |  |  | 2 µM | 2 µM |  |
| CN(C)CCOB(c1ccccc1)c1cccc(COCc2cccc(B(OCCN(C)C)c3ccccc3)c2)c1 [Example 403, bis(3,3′-(phenyl-N,N-dimethylaminoethoxyboryl)benzyl)ether] |  | 1.14 |  |  |  | 2 µM | x-Fold ([1]; polyglutamine aggregation, Truncated N-terminal huntington 150 Q-EGFP-Neuron 2a cells, listed as 2022): 1.14; IC50 [2, 10]: 2 µM |
| NCCSB(c1ccccc1)c1cccc(COCc2cccc(B(SCCN)c3ccccc3)c2)c1 [Example 405, bis(3,3′-(phenyl-aminoethylthioboryl)benzyl)ether] |  | 0.86 |  |  |  | 0.5 µM | x-Fold ([1]; polyglutamine aggregation, Truncated N-terminal huntington 150 Q-EGFP-Neuron 2a cells): 0.86; IC50 [2, 10]: 0.5 µM |
| OB(c1ccccc1)c1cccc(B(O)c2ccccc2)c1 [compound 554] |  |  |  |  | > 20 µM |  |  |
| NC(CCC(=O)O)C(=O)OB(c1ccccc1)c1ccc(Oc2ccc(B(OC(=O)C(N)CCC(=O)O)c3ccc(CO)cc3)cc2)cc1 (stereo not shown) [compound 1036] |  |  |  |  | 0.3 µM |  |  |
| Cc1ccc(B(OC(=O)C(N)CC(N)=O)c2ccc(C)c(Cl)c2)cc1Cl (stereo not shown) [compound 4103] |  |  |  |  | 0.3 µM |  |  |
| bis(3-chloro-4-methylphenyl hydroxyborylbenzyl)ether [Example 125] |  |  | 113 | 113 |  |  | IC50 [2, 5]: 10 µM |
| bis((4,4′-phenyl methylaminoethoxyboryl)benzyloxybenzyl)methylaminoethoxyborane [Example 190] | 1.05 | 1.05 | 99 | 99 |  |  |  |
| bis((4,4′-phenyldimethylaminoethoxyboryl)benzyloxybenzyl)dimethylamino-ethoxyborane [Example 191] | 1.04 | 1.04 | 85 | 85 |  |  |  |
| di(3-chloro-4-methylphenyl)(2,6-diaminopimelinate-O,N)borane [Example 286] | 0.93 | 0.93 | 104 | 104 |  |  |  |
| di(3-chloro-6-methyl-phenyl)(argininate-O,N)borane [Example 156] | 1.08 | 1.08 | 91 | 91 |  |  |  |
| diphenyl(FITC-2,6-diaminocapronate-O,N)borane [Example 177] | 1.00 | 1.00 | 28 | 28 |  |  |  |
| diphenyl(tryptophanate-O,N)borane [Example 260] | 0.89 | 0.89 | 106 | 106 |  |  |  |
| tetramethylrhodamine aminoethylaminoethyl diphenylborinate [Example 162] | 0.85 | 0.85 | −2 | −2 |  |  |  |
